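All cell lines were grown in 96-well plates and treated with compound for 48 hours. At the GI50, growth is halved.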 Calls of active or inactive are those of the source. Cut-off read from the data, not from the text of the source: active = GI50 up to about 1.1 µM and inactive = higher.
Tests used:
Test in all cases: NCI tumour cell line growth inhibition, 48 h
LXFL 529 = system: LXFL 529
HCT-116 = system: HCT-116
COLO 205 = system: COLO 205
NCI-H522 = system: NCI-H522
SN12C = system: SN12C
SF-268 = system: SF-268
KM-20L2 = system: KM-20L2
SR = system: SR
UACC-257 = system: UACC-257
MDA-MB-231 = system: MDA-MB-231
PC-3 = system: PC-3
DU-145 = system: DU-145
BT-549 = system: BT-549
M14 = system: M14
OVCAR-8 = system: OVCAR-8
NCI-H460 = system: NCI-H460
UO-31 = system: UO-31
HL-60 = system: HL-60
RXF 393 = system: RXF 393
MDA-N = system: MDA-N
A549 = system: A549
ACHN = system: ACHN
NCI-H226 = system: NCI-H226
MDA-MB-435 = system: MDA-MB-435
IGROV-1 = system: IGROV-1
SK-MEL-28 = system: SK-MEL-28
CCRF-CEM = system: CCRF-CEM
SNB-19 = system: SNB-19
LOX IMVI = system: LOX IMVI
HOP-18 = system: HOP-18
UACC-62 = system: UACC-62
OVCAR-3 = system: OVCAR-3
KM12 = system: KM12
SF-295 = system: SF-295
Hs-578T = system: Hs-578T
Malme-3M = system: Malme-3M
RXF 631 = system: RXF 631
OVCAR-5 = system: OVCAR-5
CAKI-1 = system: CAKI-1
NCI/ADR-RES = system: NCI/ADR-RES
SNB-75 = system: SNB-75
TK-10 = system: TK-10
RPMI-8226 = system: RPMI-8226
SK-MEL-5 = system: SK-MEL-5
M19-MEL = system: M19-MEL
A498 = system: A498
NCI-H23 = system: NCI-H23
HCT-15 = system: HCT-15
SK-MEL-2 = system: SK-MEL-2
U-251 = system: U-251
DMS-273 = system: DMS-273
OVCAR-4 = system: OVCAR-4
MCF7 = system: MCF7
SK-OV-3 = system: SK-OV-3
HOP-92 = system: HOP-92
EKVX = system: EKVX
T47D = system: T47D
SW-620 = system: SW-620
XF498 = system: XF498
DLD-1 = system: DLD-1
MOLT-4 = system: MOLT-4
SNB-78 = system: SNB-78
HT-29 = system: HT-29
HCC 2998 = system: HCC 2998
K562 = system: K562
HOP-62 = system: HOP-62
786-0 = system: 786-0
SF-539 = system: SF-539
DMS-114 = system: DMS-114

COc1cc(C2c3cc4c(cc3[C@H](OCCN(C)C)[C@@H]3COC(=O)C23)OCO4)cc(OC)c1O (stereo partly drawn) was tested, and the GI50 (LXFL 529) was 2.02 µM (inactive), the GI50 (HCT-116) was 0.753 µM (active) and the GI50 (COLO 205) was 1.73 µM (inactive). For the same molecule, the GI50 (NCI-H522) was 0.357 µM (active), the GI50 (SN12C) was 0.0624 µM (active) and the GI50 (SF-268) was 0.194 µM (active). The GI50 (KM-20L2) was 0.364 µM (active), the GI50 (SR) was 0.218 µM (active) and the GI50 (UACC-257) was 1.37 µM (inactive). For the same molecule, the GI50 (MDA-MB-231) was 2.62 µM (inactive), the GI50 (PC-3) was 0.805 µM (active) and the GI50 (DU-145) was 0.134 µM (active). For the same molecule, the GI50 (BT-549) was 0.499 µM (active), the GI50 (M14) was 0.244 µM (active) and the GI50 (OVCAR-8) was 0.624 µM (active). The GI50 (NCI-H460) was < 0.01 µM (active), the GI50 (UO-31) was 0.417 µM (active) and the GI50 (HL-60) was < 0.01 µM (active). The GI50 (RXF 393) was 0.299 µM (active), the GI50 (MDA-N) was 2.12 µM (inactive) and the GI50 (A549) was 0.0334 µM (active). For the same molecule, the GI50 (ACHN) was 0.0293 µM (active), the GI50 (NCI-H226) was 0.0441 µM (active) and the GI50 (MDA-MB-435) was 2 µM (inactive). For the same molecule, the GI50 (IGROV-1) was 1.36 µM (inactive), the GI50 (SK-MEL-28) was 1.02 µM (active) and the GI50 (CCRF-CEM) was 0.0791 µM (active). The GI50 (SNB-19) was 0.31 µM (active), the GI50 (LOX IMVI) was 0.0931 µM (active) and the GI50 (HOP-18) was 0.27 µM (active). For the same molecule, the GI50 (UACC-62) was 0.0762 µM (active), the GI50 (OVCAR-3) was 1.46 µM (inactive) and the GI50 (KM12) was 0.69 µM (active). The GI50 (SF-295) was 0.0681 µM (active), the GI50 (Hs-578T) was 1.52 µM (inactive) and the GI50 (Malme-3M) was 0.275 µM (active). The GI50 (RXF 631) was 0.0724 µM (active), the GI50 (OVCAR-5) was 0.738 µM (active) and the GI50 (CAKI-1) was 0.0519 µM (active). The GI50 (NCI/ADR-RES) was 2.67 µM (inactive), the GI50 (SNB-75) was 0.307 µM (active) and the GI50 (TK-10) was 2.51 µM (inactive). The GI50 (RPMI-8226) was 0.938 µM (active), the GI50 (SK-MEL-5) was 0.307 µM (active) and the GI50 (M19-MEL) was 0.373 µM (active). The GI50 (A498) was 0.105 µM (active), the GI50 (NCI-H23) was 0.155 µM (active) and the GI50 (HCT-15) was 0.605 µM. For the same molecule, the GI50 (SK-MEL-2) was 0.706 µM (active), the GI50 (U-251) was 0.0468 µM (active) and the GI50 (DMS-273) was 0.0385 µM (active). For the same molecule, the GI50 (OVCAR-4) was 1.84 µM (inactive), the GI50 (MCF7) was 0.0484 µM (active) and the GI50 (SK-OV-3) was 0.0912 µM (active). For the same molecule, the GI50 (HOP-92) was 0.0989 µM (active), the GI50 (EKVX) was 0.485 µM (active) and the GI50 (T47D) was 0.369 µM (active). For the same molecule, the GI50 (SW-620) was 0.422 µM (active), the GI50 (XF498) was 0.115 µM (active) and the GI50 (DLD-1) was 0.805 µM (active). The GI50 (MOLT-4) was < 0.0123 µM (active), the GI50 (SNB-78) was 3.83 µM (inactive) and the GI50 (HT-29) was 0.621 µM (active). The GI50 (HCC 2998) was 0.774 µM (active), the GI50 (K562) was 0.713 µM (active) and the GI50 (HOP-62) was 0.053 µM (active). The GI50 (786-0) was 0.0614 µM (active) and the GI50 (SF-539) was 0.0671 µM (active).
For CC1Oc2c(c(O)cc3oc(=O)cc(-c4ccccc4)c23)C(=O)C1C (stereo not drawn), the GI50 (LXFL 529) was > 100 µM (inactive), the GI50 (COLO 205) was > 100 µM (inactive) and the GI50 (NCI-H522) was > 100 µM (inactive). For the same molecule, the GI50 (SN12C) was > 100 µM (inactive), the GI50 (SF-268) was > 100 µM (inactive) and the GI50 (KM-20L2) was > 100 µM (inactive). For the same molecule, the GI50 (M14) was > 100 µM (inactive), the GI50 (OVCAR-8) was > 100 µM (inactive) and the GI50 (NCI-H460) was > 100 µM (inactive). For the same molecule, the GI50 (UO-31) was > 100 µM (inactive), the GI50 (HL-60) was > 100 µM (inactive) and the GI50 (ACHN) was > 100 µM (inactive). For the same molecule, the GI50 (NCI-H226) was > 100 µM (inactive), the GI50 (IGROV-1) was > 100 µM (inactive) and the GI50 (SK-MEL-28) was > 100 µM (inactive). The GI50 (CCRF-CEM) was > 100 µM (inactive), the GI50 (LOX IMVI) was > 100 µM (inactive) and the GI50 (HOP-18) was > 100 µM (inactive). For the same molecule, the GI50 (UACC-62) was > 100 µM (inactive), the GI50 (OVCAR-3) was > 100 µM (inactive) and the GI50 (SF-295) was > 100 µM (inactive). For the same molecule, the GI50 (Malme-3M) was > 100 µM (inactive), the GI50 (RXF 631) was > 100 µM (inactive) and the GI50 (CAKI-1) was > 100 µM (inactive). The GI50 (SNB-75) was > 100 µM (inactive), the GI50 (TK-10) was > 100 µM (inactive) and the GI50 (RPMI-8226) was > 100 µM (inactive). The GI50 (SK-MEL-5) was > 100 µM (inactive), the GI50 (A498) was > 100 µM (inactive) and the GI50 (NCI-H23) was > 100 µM (inactive). The GI50 (HCT-15) was greater than 100 µM, the GI50 (SK-MEL-2) was > 100 µM (inactive) and the GI50 (U-251) was > 100 µM (inactive). The GI50 (DMS-273) was > 100 µM (inactive), the GI50 (SK-OV-3) was > 100 µM (inactive) and the GI50 (HOP-92) was > 100 µM (inactive). The GI50 (EKVX) was > 100 µM (inactive), the GI50 (SW-620) was > 100 µM (inactive) and the GI50 (XF498) was > 100 µM (inactive). For the same molecule, the GI50 (DLD-1) was > 100 µM (inactive), the GI50 (MOLT-4) was > 100 µM (inactive) and the GI50 (SNB-78) was > 100 µM (inactive). The GI50 (HT-29) was > 10 µM (inactive), the GI50 (K562) was > 100 µM (inactive) and the GI50 (SF-539) was > 100 µM (inactive).
With CN1CCC23c4c5ccc(O)c4OC2C(=NN=C2CCC4(O)C6Cc7ccc(O)c8c7C4(CCN6C)C2O8)CCC3(O)C1C5 (stereo not drawn) the GI50 (LXFL 529) was > 100 µM (inactive), the GI50 (COLO 205) was > 100 µM (inactive) and the GI50 (NCI-H522) was > 100 µM (inactive). For the same molecule, the GI50 (SN12C) was > 100 µM (inactive), the GI50 (SF-268) was > 100 µM (inactive) and the GI50 (KM-20L2) was > 100 µM (inactive). For the same molecule, the GI50 (UACC-257) was > 100 µM (inactive), the GI50 (M14) was > 100 µM (inactive) and the GI50 (OVCAR-8) was > 100 µM (inactive). For the same molecule, the GI50 (NCI-H460) was > 100 µM (inactive), the GI50 (UO-31) was > 100 µM (inactive) and the GI50 (HL-60) was > 100 µM (inactive). For the same molecule, the GI50 (A549) was > 100 µM (inactive), the GI50 (ACHN) was > 100 µM (inactive) and the GI50 (NCI-H226) was > 100 µM (inactive). For the same molecule, the GI50 (IGROV-1) was > 100 µM (inactive), the GI50 (SK-MEL-28) was > 100 µM (inactive) and the GI50 (CCRF-CEM) was > 100 µM (inactive). For the same molecule, the GI50 (SNB-19) was > 100 µM (inactive), the GI50 (LOX IMVI) was > 100 µM (inactive) and the GI50 (HOP-18) was > 100 µM (inactive). For the same molecule, the GI50 (UACC-62) was > 100 µM (inactive), the GI50 (OVCAR-3) was > 100 µM (inactive) and the GI50 (KM12) was > 100 µM (inactive). The GI50 (SF-295) was > 100 µM (inactive), the GI50 (Malme-3M) was > 100 µM (inactive) and the GI50 (RXF 631) was > 100 µM (inactive). The GI50 (OVCAR-5) was > 100 µM (inactive), the GI50 (CAKI-1) was > 100 µM (inactive) and the GI50 (SNB-75) was > 100 µM (inactive). The GI50 (TK-10) was > 100 µM (inactive), the GI50 (RPMI-8226) was > 100 µM (inactive) and the GI50 (SK-MEL-5) was > 100 µM (inactive). The GI50 (M19-MEL) was > 100 µM (inactive), the GI50 (A498) was > 100 µM (inactive) and the GI50 (NCI-H23) was > 100 µM (inactive). The GI50 (HCT-15) was greater than 100 µM, the GI50 (SK-MEL-2) was > 100 µM (inactive) and the GI50 (U-251) was > 100 µM (inactive). The GI50 (DMS-273) was > 100 µM (inactive), the GI50 (OVCAR-4) was > 100 µM (inactive) and the GI50 (SK-OV-3) was > 100 µM (inactive). For the same molecule, the GI50 (HOP-92) was > 100 µM (inactive), the GI50 (EKVX) was > 100 µM (inactive) and the GI50 (DMS-114) was > 100 µM (inactive). The GI50 (SW-620) was > 100 µM (inactive), the GI50 (XF498) was > 100 µM (inactive) and the GI50 (DLD-1) was > 100 µM (inactive). For the same molecule, the GI50 (MOLT-4) was > 100 µM (inactive), the GI50 (HT-29) was > 100 µM (inactive) and the GI50 (HCC 2998) was > 100 µM (inactive). For the same molecule, the GI50 (K562) was > 100 µM (inactive), the GI50 (HOP-62) was > 100 µM (inactive) and the GI50 (786-0) was > 100 µM (inactive). The GI50 (SF-539) was > 100 µM (inactive).

— ChEMBL document CHEMBL1201862, “PubChem BioAssay data set” (2004)
